# According to US4432348A, “Enhancer of anti-tumor effect” (Yamasa Shoyu Kabushiki Kaisha, priority 1980, dated 1984):
# Tests used:
# EMT-6 tumor [1] = assay: Radiosensitizing effect on EMT-6 experimental tumors in mice (enhancer i.p. after local irradiation); assay type: in vivo, BALB/c-strain female mice; settings: for Diameter ratio / Mean tumor diameter / Volume ratio: irradiation 1500 rad + i.p. enhancer (3'-dGuo-5'-MP 100 mg/kg; 3'-dAdo-5'-MP 75 mg/kg); for 0.5 to less than 1 of volume ratio excluding cure; Tumor regression rate: slow, share of mice / 1.0 to less than 2.0 of volume ratio excluding cure; regrowth: slow, share of mice / 2.0 or more of volume ratio excluding cure; regrowth: rapid, share of mice / Cure (tumors completely vanished), share of mice / Less than 0.5 of volume ratio excluding cure; Tumor regression rate: rapid, share of mice: 28th day after treatment, irradiation 1500 rad + enhancer (3'-dGuo-5'-MP 100 mg/kg; 3'-dAdo-5'-MP 75 mg/kg); for Mean tumor diameter at the time of irradiation: baseline before irradiation (1500 rad) and i.p. enhancer (3'-dGuo-5'-MP 100 mg/kg, n = 9; 3'-dAdo-5'-MP 75 mg/kg, n = 10); for Radiosensitizing activity: summary statement
# Procedure: EMT-6 tumor cells (2×10^5) were inoculated intradermally into the right thighs of BALB/c-strain female mice (8 weeks old, 6 or more mice for each group). When the tumor size reached 6 to 7 mm in diameter after inoculation of the tumor cells, local irradiation with a 32 MeV electron beam was carried out at 1,500 rad under no anesthesia and thereafter 3'-dGuo-5'-MP and 3'-dAdo-5'-MP dissolved in physiological saline solution, was administered intraperitoneally to each mouse in the indicated doses of respective agents. After these treatments, the tumor sizes were measured in tri-dimensional diameters every day or every other day for 28 days, and compared with the control group with respect to the following items: [formula]
# The results are shown in Table 1 and Table 2, in which "cure" means that the tumors completely vanished during the observation period.
# EMT-6 tumor [2] = assay: Enhancement of the effect of anti-tumor agents (araC) on EMT-6 experimental tumors in mice; assay type: in vivo, BALB/c-strain female mice
# Procedure: EMT-6 tumor cells (1×10^6) were inoculated intradermally into the right thighs of BALB/c-strain female mice (8 weeks old). On the 11th day after inoculation of the tumor cells and thereafter, 3'-dGuo-5'-MP in physiological saline solutions were administered intrapenitoneally to the mice for 8 consecutive days in the dose of 50 mg/kg. The pharmaceutical agents of the present invention were administered an hour after administration of araC. After commencement of the treatment with pharmaceutical agents, the tumor sizes were measured and compared with the control group.
# [3] = Acute toxicity test, intraperitoneal; settings: mouse, in vivo, ip, ICR mice, male, 8 weeks old, observed for a week
# Procedure: The compounds of this invention were administered intraperitoneally to ICR mice (male, 8 weeks old, 10 mice for each group), and the mice were subjected to observation for a week.
# [4] = system: potentially lethal damage repair (PLDR); assay: Inhibition of potentially lethal damage repair (PLDR)
# Text: In view of the fact that the tumor cells with radioresistance under hypoxic conditions are at a quiescent stage, I have investigated the possibility of radiosensitization by inhibiting potentially lethal damage repair (hereinafter referred to as "PLDR"), which is especially marked in quiescent cells.
# adenosinedeaminase [5] = settings: in bodies; cited from earlier work
# [6] = background art; cited from earlier work
# adenosinedeaminase [7] = settings: cited from earlier work
# [8] = 7 days after commencement of treatment, single agent 50 mg/kg × 8
# [9] = 7 days after commencement of treatment, single agent 50 mg/kg × 8 (n = 10)
# [10] = 14 days after commencement of treatment, single agent 50 mg/kg × 8
# [11] = 14 days after commencement of treatment, single agent 50 mg/kg × 8 (n = 10)
# [12] = 21 days after commencement of treatment, single agent 50 mg/kg × 8
# [13] = 21 days after commencement of treatment, single agent 50 mg/kg × 8 (n = 10)
# [14] = immediately before commencement of treatment, single agent 50 mg/kg × 8 (n = 10)
smiles,measurement,setting,value
"Nc1nc2c(ncn2[C@@H]2O[C@H](COP(=O)(O)O)C[C@H]2O)c(=O)[nH]1 [3'-dGuo-5'-MP, 3'-deoxyguanosine-5'-monophosphate]",Diameter ratio,EMT-6 tumor [1]; 2 weeks after treatment,0.93 ± 0.13
same,Mean tumor diameter,EMT-6 tumor [1]; 2 weeks after treatment,6.17 ± 0.90 mm
same,Volume ratio,EMT-6 tumor [1]; 2 weeks after treatment,1.19 ± 0.32
same,Diameter ratio,EMT-6 tumor [1]; 3 weeks after treatment,0.90 ± 0.18
same,Mean tumor diameter,EMT-6 tumor [1]; 3 weeks after treatment,5.95 ± 1.22 mm
same,Volume ratio,EMT-6 tumor [1]; 3 weeks after treatment,1.45 ± 0.46
same,"0.5 to less than 1 of volume ratio excluding cure; Tumor regression rate: slow, share of mice",EMT-6 tumor [1],22%
same,"1.0 to less than 2.0 of volume ratio excluding cure; regrowth: slow, share of mice",EMT-6 tumor [1],56%
same,"2.0 or more of volume ratio excluding cure; regrowth: rapid, share of mice",EMT-6 tumor [1],0%
same,"Cure (tumors completely vanished), share of mice",EMT-6 tumor [1],22%
same,"Less than 0.5 of volume ratio excluding cure; Tumor regression rate: rapid, share of mice",EMT-6 tumor [1],0%
same,Mean tumor diameter at the time of irradiation,EMT-6 tumor [1],6.46 ± 0.23 mm
same,Radiosensitizing activity,EMT-6 tumor [1],excellent radiosensitizing activities
same,Mean tumor diameter ratio,EMT-6 tumor [2]; [8],1.30 ± 0.13
same,Mean tumor diameter,EMT-6 tumor [2]; [9],9.83 ± 1.07 mm
same,Mean tumor diameter ratio,"EMT-6 tumor [2]; 7 days after commencement, combination araC 50 mg/kg × 8 + 3'-dGuo-5'-MP 50 mg/kg × 8",1.13 ± 0.15
same,Mean tumor diameter,"EMT-6 tumor [2]; 7 days after commencement, combination araC 50 mg/kg × 8 + 3'-dGuo-5'-MP 50 mg/kg × 8 (1 h after araC)",8.28 ± 1.11 mm
same,Mean tumor diameter ratio,EMT-6 tumor [2]; [10],1.61 ± 0.27
same,Mean tumor diameter,EMT-6 tumor [2]; [11],12.10 ± 2.00 mm
same,Mean tumor diameter ratio,"EMT-6 tumor [2]; 14 days after commencement, combination araC 50 mg/kg × 8 + 3'-dGuo-5'-MP 50 mg/kg × 8",1.26 ± 0.51
same,Mean tumor diameter,"EMT-6 tumor [2]; 14 days after commencement, combination araC 50 mg/kg × 8 + 3'-dGuo-5'-MP 50 mg/kg × 8 (1 h after araC)",9.12 ± 3.67 mm
same,Mean tumor diameter ratio,EMT-6 tumor [2]; [12],2.05 ± 0.32
same,Mean tumor diameter,EMT-6 tumor [2]; [13],15.40 ± 2.01 mm
same,Mean tumor diameter ratio,"EMT-6 tumor [2]; 21 days after commencement, combination araC 50 mg/kg × 8 + 3'-dGuo-5'-MP 50 mg/kg × 8",1.67 ± 0.68
same,Mean tumor diameter,"EMT-6 tumor [2]; 21 days after commencement, combination araC 50 mg/kg × 8 + 3'-dGuo-5'-MP 50 mg/kg × 8 (1 h after araC)",12.07 ± 4.98 mm
same,Mean tumor diameter,"EMT-6 tumor [2]; immediately before commencement of treatment, combination araC 50 mg/kg × 8 + 3'-dGuo-5'-MP 50 mg/kg × 8 (n = 9)",7.34 ± 0.62 mm
same,Mean tumor diameter,EMT-6 tumor [2]; [14],7.57 ± 0.64 mm
same,LD50 at 168 h,[3],> 1000 mg/kg
"Nc1ncnc2c1ncn2[C@@H]1O[C@H](CO)C[C@H]1O [3'-dAdo, 3'-deoxyadenosine]",Radiosensitizing activity,EMT-6 tumor [1],excellent radiosensitizing activities
same,PLDR-inhibiting ability,[4],confirmed to have a PLDR-inhibiting ability
same,PLDR-inhibiting ability in combination with 2'-deoxycoformycin,[4]; in combination with 2'-deoxycoformycin,can be strengthened and prolonged
same,Inactivation by adenosinedeaminase,adenosinedeaminase [5],readily inactivated by adenosinedeaminase
same,Toxicity / side effects,[6],various side effects
"Nc1ncnc2c1ncn2[C@@H]1O[C@H](COP(=O)(O)O)C[C@H]1O [3'-dAdo-5'-MP, 3'-deoxyadenosine-5'-monophosphate]",Diameter ratio,EMT-6 tumor [1]; 2 weeks after treatment,0.66 ± 0.14
same,Mean tumor diameter,EMT-6 tumor [1]; 2 weeks after treatment,4.75 ± 1.06 mm
same,Volume ratio,EMT-6 tumor [1]; 2 weeks after treatment,0.63 ± 0.18
same,Diameter ratio,EMT-6 tumor [1]; 3 weeks after treatment,0.49 ± 0.17
same,Mean tumor diameter,EMT-6 tumor [1]; 3 weeks after treatment,3.65 ± 1.24 mm
same,Volume ratio,EMT-6 tumor [1]; 3 weeks after treatment,0.58 ± 0.27
same,"0.5 to less than 1 of volume ratio excluding cure; Tumor regression rate: slow, share of mice",EMT-6 tumor [1],0%
same,"1.0 to less than 2.0 of volume ratio excluding cure; regrowth: slow, share of mice",EMT-6 tumor [1],20%
same,"2.0 or more of volume ratio excluding cure; regrowth: rapid, share of mice",EMT-6 tumor [1],10%
same,"Cure (tumors completely vanished), share of mice",EMT-6 tumor [1],50%
same,"Less than 0.5 of volume ratio excluding cure; Tumor regression rate: rapid, share of mice",EMT-6 tumor [1],20%
same,Mean tumor diameter at the time of irradiation,EMT-6 tumor [1],7.07 ± 0.23 mm
same,Radiosensitizing activity,EMT-6 tumor [1],excellent radiosensitizing activities
same,LD50 at 168 h,[3],500 mg/kg
"Nc1ccn([C@@H]2O[C@H](CO)[C@@H](O)[C@@H]2O)c(=O)n1 [araC, 1-β-D-arabinofuranosylcytosine, reference compound]",Mean tumor diameter ratio,EMT-6 tumor [2]; [8],1.29 ± 0.13
same,Mean tumor diameter,EMT-6 tumor [2]; [9],9.63 ± 0.68 mm
same,Mean tumor diameter ratio,EMT-6 tumor [2]; [10],1.60 ± 0.20
same,Mean tumor diameter,EMT-6 tumor [2]; [11],11.91 ± 1.21 mm
same,Mean tumor diameter ratio,EMT-6 tumor [2]; [12],2.08 ± 0.20
same,Mean tumor diameter,EMT-6 tumor [2]; [13],15.49 ± 1.26 mm
same,Mean tumor diameter,EMT-6 tumor [2]; [14],7.49 ± 0.63 mm
OC[C@H]1O[C@@H](n2cnc3c2NC=NC[C@H]3O)C[C@@H]1O [2'-deoxycoformycin],Toxicity / side effects,[6],may cause damage to the immune systems
same,Adenosinedeaminase inhibition,adenosinedeaminase [7],inhibitor against adenosinedeaminase
COCC(O)Cn1ccnc1[N+](=O)[O-] (stereo not drawn) [misonidazole],Toxicity / side effects,[6],neurotoxicity
